Results: patent publication US10772879B2, “Pharmaceutical formulations” (TORRENT PHARMACEUTICALS LIMITED, priority 2015, dated 2020)

Assays:
[1] = Oral bioavailability in rats (data on file); assay type: in vivo; conditions: administered orally to rats
[2] = test system: animal models of Type II diabetes; conditions: cited from earlier work
[3] = phase I clinical studies, humans; cited from earlier work
[4] = clinical studies, administered orally; cited from earlier work
[5] = Assessment of oral pharmacokinetics / bioavailability in jugular vein cannulated Wistar rats; assay type: in vivo; conditions: 10 mg/kg, Wistar rats (n=5), Mean
Experimental: Bioavailability of 1-(2-thien-2′-yl-2-oxo-ethyl)-3-(methanesulfonyl hydrazine carbonyl) pyridinium compound was checked using formulations as given in Table 2.
The assessment of oral pharmacokinetics was carried out. […] The blood samples were withdrawn at pre-determined time points; pre-dose (0.0 hr), 0.25, 0.5, 1, 2, 4, 6, 8, 12 and 24 hrs post dose. Plasma obtained at each time point was subjected to quantification of 1-(2-thien-2′-yl-2-oxo-ethyl)-3-(methanesulfonyl hydrazine carbonyl) pyridinium compound. LC-MS/MS method was used for the quantification of 1-(2-thien-2′-yl-2-oxo-ethyl)-3-(methanesulfonyl hydrazine carbonyl) pyridinium compound using an internal standard. The plasma samples were analyzed using solid phase extraction techniques in the calibration range of 0.500 ng/mL to 1000.000 ng/mL.
Data were presented with Mean±SD (standard deviation) and compared with 1-(2-thien-2′-yl-2-oxo-ethyl)-3-(methanesulfonyl hydrazine carbonyl) pyridinium compound PK data obtained after oral administration of solution of 1-(2-thien-2′-yl-2-oxo-ethyl)-3-(methanesulfonyl hydrazine carbonyl) pyridinium chloride in water under similar conditions.

## 1-(2-thien-2′-yl-2-oxo-ethyl)-3-(methanesulfonyl hydrazine carbonyl) pyridinium bromide
[1]
  bioavailability: very low

## 1-(2-thien-2′-yl-2-oxo-ethyl)-3-(methanesulfonyl hydrazine carbonyl) pyridinium chloride
[2]
  effect on cardiomyopathy and nephropathy: improve cardiomyopathy and nephropathy
[3]
  oral bioavailability: very low
[4]
  safety and tolerability: safe and well tolerated
[5]
  AUClast: 222.86 ng·h/mL
  Cmax: 85.764 ng/mL
